Read-outs that look alike come from different tables or passages of the source.
How the values were obtained:
HT29 cells [1] = test system: HT29 cells
Source text: Nonetheless, down-regulation of receptors and their depletion from the membrane may dramatically impair the efficiency of a peptide-based therapy.

HaCat cells = conditions: 5 µg/ml, 1h at 4°C
Method: (§1) Confocal laser microscopy was used to carry out receptor binding assays. […] After fixing with 4% formalin, the plasma membrane was stained by incubation with concanavalin A-biotin (10 µg/mL in PBS - 1% BSA, Molecular Probes, Cat. No. C21420) at 4°C for 15 min and avidin-FITC (0.5 µg/ml in PBS - 1% BSA, Sigma, Cat. No S3762).

HT29 cells [2] = conditions: 1 h at 4°C, washed, then 37°C
HT29 cells [3] = assay: Lysosomal localization with lysotracker green in HT29 cells; conditions: 1 h at 4°C followed by 4 hours in DMEM at 37°C
HT29 cells [4] = assay: Confocal laser microscopy receptor binding assay on HT29 cells; type: cell-based, human; conditions: 5 µg/ml in PBS - 1% BSA, 1 hour at 4°C
Method: as §1

HT29 cells [5] = assay: In vitro cytostatic activity by MTT assay, HT29; type: cell-based, human
Method: HT29 cells were plated in 0.2 ml aliquots at a density of 5 x 10^3 in a 96-well microplate. Different concentrations of NT4-MTX were added 24 hours after plating. Growth inhibition was assessed by MTT assay 6 days later. The same experiments were carried out with the scramble analog of the conjugate and with free MTX.
The same experiments were performed with the scramble analogue [(LRIPRY)4-MTX] and with unconjugated MTX. SW620 (NTR-expressing human colon carcinoma cell line, Istituto Zooprofilattico Sperimentale, Brescia, Italy) and on HCT116 (NTR-expressing human colon carcinoma cell line, Istituto Zooprofilattico Sperimentale, Brescia, Italy cell lines) were also tested with the same procedure.

HT29 tumors [6] = test system: HT29 tumors
Method: Female CD-1 nude mice (Charles River Laboratories Inc., Wilmington, MA) 6-7 weeks of age (mean weight of 25 g), were injected subcutaneously in the right flank with of 2 x 10^6 HT29 cells.
Tumor volumes were measured daily with a caliper using the following formula: Volume = length x width^2 x Π/6. The tumor volumes for each group were pooled to plot mean tumor growth curves. At the end of the experiment, the mice were sacrificed. Tumors were removed and weighed and the weights compared between treated and control mice.

NT receptors (NTR) = target: T1, NT receptors (NTR) (Homo sapiens, UniProt P30989); assay: Inhibition of 125I-NT binding to HT29 cell membranes; conditions: displacement of 125I-NT, HT29 human adenocarcinoma cell membranes
T1 construct: HT29 human adenocarcinoma cell membranes, that over-express NTR; endogenous in cells; host or cells: HT29 human colon adenocarcinoma cell membranes
T1 sequence (P30989 whole entry): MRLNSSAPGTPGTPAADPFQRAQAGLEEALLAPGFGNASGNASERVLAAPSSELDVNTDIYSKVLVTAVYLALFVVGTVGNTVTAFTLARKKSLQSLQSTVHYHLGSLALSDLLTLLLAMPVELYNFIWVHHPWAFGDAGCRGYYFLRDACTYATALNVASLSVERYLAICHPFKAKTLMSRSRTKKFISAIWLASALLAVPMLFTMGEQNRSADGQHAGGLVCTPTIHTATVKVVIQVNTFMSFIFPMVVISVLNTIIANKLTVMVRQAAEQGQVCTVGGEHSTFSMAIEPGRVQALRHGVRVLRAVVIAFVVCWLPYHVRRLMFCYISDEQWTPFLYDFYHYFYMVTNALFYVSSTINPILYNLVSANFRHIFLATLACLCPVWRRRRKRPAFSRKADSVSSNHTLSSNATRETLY
Source text: A tetrameric peptide carrying scrambled NT aminoacids (LRIPRY), scramble NT4(8-13), was used as control and allowed to verify sequence specificity.

HT29 tumors [7] = assay: In vivo tumor growth retardation, HT29 tumors grafted in nude mice; parameters: species or system CD-1 nude mice; conditions: i.v. on days 0, 5, 10 and 15, 4.05 µmol/kg
Source text: The invention will be now described by non limiting examples referring to the following figures: • FIGURE 1. […] NT4(8-13) peptide binding and cell internalization. […] Lysosome localization of NT4(8-13)-TMR. […] NT4(8-13) binding to colon and pancreas tumoral biopsies. Confocal microscopy images of (A) human sections of colon carcinoma, (B) healthy colon, (C) pancreatic carcinoma and (D) healthy pancreas. […] NTR regeneration. […] NT4(8-13)-Che6 cytotoxicity. […] The cells were then washed to remove unbound conjugate and irradiated (except for dark controls) with a total light dose of 3 J/cm^2. Drug phototoxicity was assessed by measuring cell survival, using the MTT assay 24 hours after irradiation. Negative controls (--) included HT29 cells incubated with the conjugate and not irradiated, cells irradiated and not incubated and untreated cells. • FIGURE 9. […] Inhibition of cell growth was tested by an MTT assay after 72 hours of incubation. • FIGURE 10. In vivo tumor growth retardation mediated by NT4(8-13)-MTX. […] Five days after the last injection, animals were sacrificed and tumors were removed and weighed.

HT29 cells [8] = assay: Phototoxicity (photokilling) by MTT assay; type: cell-based, human; conditions: 4 hours at 37°C in the dark, 100 µM to 0.1 µM, irradiated 3 J/cm^2
Method: In order to assess the phototoxicity of NT4(8-13)-Che6 conjugate, photokilling experiments were carried out on HT29 cells. HT29 cells (2 x 10^4/well) were plated in 96-well microplates. After growing for 2 days, the cells were incubated at 37°C in the dark with different concentrations of NT4-Che6 (from 100 µM to 0.1 µM in RPMI with 10% FCS) for 4 hours. The cells were then washed to remove unbound conjugate and irradiated (except dark controls) with a Zeiss KL1500 tungsten halogen lamp (Zeiss, Jena, Germany) equipped with a 600-800 nm band pass filter (Corion, Franklin, MA) and with two optical fibers placed 1 cm from the well. The plate was placed back in the incubator overnight and the phototoxicity of the conjugate was monitored in a MTT assay. Similar experiments were performed with scramble NT4(8-13)-Che6 [(LRIPRY)4-Che6] and with free Che6. Further controls included HT29 cells incubated with the conjugate and not irradiated, cells irradiated and not incubated and untreated cells.

human colon tumors = assay: Fluorescent detection of NT receptors in colon biopsy sections; type: binding; conditions: 0.5 µg/ml, avidin-FITC
Method: (§2) Tumoral and healthy colon and pancreatic tissues were collected from oncological patients undergoing tumor resection. Frozen tissue tek® (Sakura Finetechnical, Tokyo, Japan) embedded tissues were sliced 15 µm thick in a cryostat (Reichert- Jung 2800 frigocut N) and placed on glass slides. Serial sections of the same biopsy were analysed both by hematoxylin/eosin (H&E) light microscopy and by fluorescent confocal microscopy. For immunofluorescent analysis the sections were fixed by immersion in 3% paraformaldehyde in PBS for 15' at room temperature., washed once and stored over night at 4°C with 0.1 M glycine in PBS. After saturation with fetal calf serum, the slices were incubated for 30' at 37°C with NT4(8-13)-Bio (0.5 µg/ml in PBS-BSA 3%) or with the uncorrelated branched peptide (DDHSAV, SEQ ID No. 4)4-Bio (0.5 µg/ml in PBS-BSA 3%), washed twice with PBS and incubated with avidin-FITC (0.5 µg/ml in PBS-BSA 3%) for 15' at room temperature. After washing, the sections were mounted with Mowiol® (Calbiochem, Cat. No. 475904) and sealed with nail polish. Negative controls were carried out incubating the slices (both tumoral and normal tissues) with avidin-FITC without previous incubation with NT4(8-13)-Bio. The fluorescine signal was observed by confocal laser microscopy (BIO-Rad MRC600) with a 488 nm excitation light.

[9] = test system: healthy and tumoral pancreatic tissues; conditions: 0.5 µg/ml, avidin-FITC
Method: as §2

tetrameric NT(8-13)4-PEG-Tetramethyl rhodamine [NT4(8-13)-TMR]
saturation of membrane receptors (HT29 cells [1]; 100 µg/ml in PBS - 1% BSA, 1 h at 4°C): saturated
rhodamine signal (HaCat cells): no rhodamine signal
peptide fluorescence localization (HT29 cells [2]; 4 hours): completely internalised
peptide fluorescence localization (HT29 cells [2]; 18 hours): complete degradation of the peptide conjugate
peptide fluorescence localization (HT29 cells [2]; time 0): localized exclusively on the plasma membrane
peptide fluorescence localization (HT29 cells [2]; two hours): present on the plasma membrane and in the cytoplasm
lysosomal localization (HT29 cells [3]): colocalization of NT4(8-13)-TMR with lysotracker green was observed
red fluorescent signal on the plasma membrane (HT29 cells [4]): binding of the peptide to membrane receptors

tetrabranched NT(8-13)-PEG-Methotrexate [NT4(8-13)-MTX]
cytostatic activity (inhibition of cell growth, MTT) (HT29 cells [5]): active
mice death (HT29 tumors [6]; 4.05 µmol/kg iv on days 0, 5, 10 and 15): no mice death was observed
Tumor weight (HT29 tumors [6]; at the end of the experiment, 4.05 µmol/kg iv x4): significantly reduced
tumor growth (HT29 tumors [6]; iv on days 0, 5, 10 and 15, 4.05 µmol/kg, compared to control mice): prevented tumor growth
volume of tumors relative to mice injected with PBS (HT29 tumors [6]; iv on days 0, 5, 10 and 15, 4.05 µmol/kg, over the whole treatment): about one third
IC50 (NT receptors (NTR)): 0.5 µM

CN(Cc1cnc2nc(N)nc(N)c2n1)c1ccc(C(=O)N[C@@H](CCC(=O)O)C(=O)O)cc1 [MTX, Methotrexate]
tumor growth (HT29 tumors [7]; compared to control mice): slight decrease in tumor growth
Tumor weight, measured at the end of the experiment (HT29 tumors [7]; five days after the last injection, Fig. 10): almost the same

tetrabranched NT(8-13)4-PEG-Chlorine e6 [NT4(8-13)-Che6]
IC50 (NT receptors (NTR)): 2.2 µM
phototoxicity (cell survival, MTT) (HT29 cells [8]): maintained its cytotoxicity

Tetrameric NT(8-13)4-PEG-Biotin [NT4(8-13)-Bio]
green signal (avidin FITC) after receptor saturation (HT29 cells [1]; 0.5 µg/ml, directly after saturation with NT4(8-13)-TMR): did not produce any detectable green signal
receptor availability for ligand binding after regeneration (HT29 cells [1]; after saturation with NT4(8-13)-TMR, washing and 37°C in culture medium overnight): the receptor was again available for ligand binding
fluorescent staining of tumoral biopsies (human colon tumors; colon tumoral biopsies (ten), 30' at 37°C): All colon tumoral specimens were positively stained
fluorescent staining of healthy tissue (human colon tumors; corresponding normal colon tissue from the same patient): only one of the healthy tissues showed a low fluorescent signal
binding to tumoral versus healthy tissue [9]: Analogous results
IC50 (NT receptors (NTR)): 0.0001 µM

Reference: EP1991561B1, “BRANCHED MULTIMERIC PEPTIDES FOR TUMOR DIAGNOSIS AND THERAPY” (Universita' Degli Studi di Siena, priority 2006, dated 2007)
